What all share (format): in vivo
Assay [1] deals with two-spotted red spiders (Tetranychus telarius). In words: Acaricidal effect on two-spotted red spiders, imago-killing rate, 500 ppm leaf immersion. Conditions: female imagoes on green bean leaf, leaf immersion about 5 seconds, concentration 500 ppm, fifth day after treatment, 25° C. As for the experimental part: (§1) Acaricidal Effect on Larvae of Two-Spotted Red Spiders (Tetranychus telarius): A stem of green bean seedling having only one primary left was placed in a test tube (capacity: 50 ml) containing water. 15 female imagoes of two-spotted red spiders were put on each leaf. One day after, the leaf having the two-spotted red spiders was immersed (about 5 seconds) in the present insecticide diluted with water, which had been prepared according to the Preparation Example, (concentration: 500 ppm, repetition: twice). They were kept in a constant-temperature room at 25° C. On the fifth day after the treatment, the female imagoes on the leaf of the green bean seedling were observed. The imago-killing rate (%) was determined on the basis of the results of the observation to obtain the results shown in Table 6.

Assay [2] has as its system eggs of two-spotted red spiders (Tetranychus telarius). Description: Acaricidal effect on eggs of two-spotted red spiders, ovicidal rate, 500 ppm spray. Conditions: eggs on green bean leaf disc; spray 3.5 ml; concentration 500 ppm; 8 days after treatment. As to the method:
Acaricidal Effect on Eggs of Two-Spotted Red Spiders (Tetranychus telarius) 5 female imagoes of two-spotted red spiders were released on a green been leaf disc (diameter: 3 cm). Then, the imagoes were left to lay eggs on the leaf disc for 20 hours and then removed therefrom. The present acaricide which had been prepared according to Preparation Example 1 was diluted with water to a predetermined concentration. 3.5 ml of the preparation thus obtained was sprayed with a rotary spraying column (Mizuho Rika) over the disc (concentration: 500 ppm, repetition: twice). 8 days after the treatment, the number of unhatched eggs was counted to determine the ovicidal rate (%).

Assay [3] concerns two-spotted red spiders (Tetranychus telarius). In words: Acaricidal effect of a low concentration (12.5 ppm) on two-spotted red spiders. Conditions: leaf immersion, female imagoes, fifth day after treatment, 25° C. As for the experimental part:
as §1, with “A” for “Acaricidal Effect on Larvae of Two-Spotted Red Spiders (Tetranychus telarius): A”
Acaricidal Effect of a Low Concentration of Acaricide on Larvae of Two-Spotted Red Spiders (Tetranychus telarius)
The same tests as those of Test Example 2 were repeated except that the concentration of the acaricide was changed to 12.5 ppm.

For `CO/C=C(/C(=O)OC)c1c(OCc2cnc(OC(C)C(F)(F)F)s2)c(C)nn1C` (racemic) [Table 2-19], the “Acaricidal rate (%)” value in assay [1] was 100%. Moreover, in assay [2], the “Ovicidal rate (%)” value came to 100%.
Turning to `CO/C=C(/C(=O)OC)c1c(C#Cc2cc(Cl)cc(Cl)c2)c(C)nn1C` [Table 1-6], the “Acaricidal rate (%)” value in assay [1] worked out at 100%. The “Ovicidal rate (%)” value in assay [2] was 100%. The compound further showed an acaricidal effect in assay [3] of 100%.
With `CO/C=C(/C(=O)OC)c1c(C#Cc2cc(C)cc(C)c2)c(C)nn1C` [Table 1-9], in assay [1], the “Acaricidal rate (%)” value was 96%. Also, the “Ovicidal rate (%)” value in assay [2] turned out to be 80%.
For `CCCc1nn(C)c(/C(=C\OC)C(=O)OC)c1C#Cc1cc(C(F)(F)F)cc(C(F)(F)F)c1` [Table 1-15], the “Acaricidal rate (%)” value in assay [1] came out at 100%. In addition, in assay [2], the “Ovicidal rate (%)” value is 100%. Moreover, the acaricidal effect in assay [3] turned out to be 100%.
Regarding `CO/C=C(/C(=O)OC)c1c(C#Cc2cc(C(F)(F)F)cc(C(F)(F)F)c2)c(-c2ccc(C(F)(F)F)cc2)nn1C` [Table 1-36], in assay [3], the acaricidal effect is given as 100%.
Regarding `CO/C=C(/C(=O)OC)c1c(OCc2ccc(Oc3ccc(C(F)(F)F)cc3)cc2)c(C)nn1C` [Table 2-2], in assay [1], the “Acaricidal rate (%)” value worked out at 100%. The “Ovicidal rate (%)” value in assay [2] is 100%.
For the compound `CO/C=C(/C(=O)OC)c1c(OCc2cccc(Oc3cccc(C(F)(F)F)c3)c2)c(C)nn1C` [Table 2-6], in assay [1], the “Acaricidal rate (%)” value stood at 100%. In assay [2], the “Ovicidal rate (%)” value was 100%.
On to `CO/C=C(/C(=O)OC)c1c(OCc2ccc(F)c(Oc3ccccc3)c2)c(C)nn1C` [Table 2-7], for which the “Acaricidal rate (%)” value in assay [1] worked out at 100%. For the same compound, the “Ovicidal rate (%)” value in assay [2] is listed as 100%.
Take `CO/C=C(/C(=O)OC)c1c(OCc2cccc(Oc3ccc(Cl)cc3)c2)c(C)nn1C` [Table 2-9]: the “Acaricidal rate (%)” value in assay [1] was 100%. Besides, the “Ovicidal rate (%)” value in assay [2] is reported as 100%.
For the compound `CO/C=C(/C(=O)OC)c1c(OCc2ccc(Oc3ccc(Cl)c(Cl)c3)cc2)c(C)nn1C` [Table 2-10], the “Acaricidal rate (%)” value in assay [1] worked out at 100%. The “Ovicidal rate (%)” value in assay [2] amounted to 100%.
`CO/C=C(/C(=O)OC)c1c(OCc2cccc(Oc3ccc(C(F)(F)F)cc3Cl)c2)c(C)nn1C` [Table 2-11]: the “Acaricidal rate (%)” value in assay [1] turned out to be 100%. In assay [2], the “Ovicidal rate (%)” value was found to be 100%.
Regarding `CO/C=C(/C(=O)OC)c1c(OCc2cccc(Oc3ccc(C)cc3)c2)c(C)nn1C` [Table 2-12], in assay [1], the “Acaricidal rate (%)” value worked out at 100%. Further, the “Ovicidal rate (%)” value in assay [2] amounted to 100%.
As for `CO/C=C(/C(=O)OC)c1c(OCc2ccc(Oc3ncc(C(F)(F)F)cc3Cl)cc2)c(C)nn1C` [Table 2-13], the “Acaricidal rate (%)” value in assay [1] came out at 100%. The “Ovicidal rate (%)” value in assay [2] amounted to 100%.
Regarding `CO/C=C(/C(=O)OC)c1c(OCc2sc(Oc3ccc(C(F)(F)F)cc3)nc2C)c(C)nn1C` [Table 2-14], the “Acaricidal rate (%)” value in assay [1] came out at 100%. The “Ovicidal rate (%)” value in assay [2] stood at 100%.
In the case of `CO/C=C(/C(=O)OC)c1c(OCc2cc(C(C)(C)C)ccc2C)c(C)nn1C` [Table 2-15], in assay [1], the “Acaricidal rate (%)” value is 100%. In addition, in assay [2], the “Ovicidal rate (%)” value is reported as 100%.
Turning to `CO/C=C(/C(=O)OC)c1c(OCc2ccc(Cl)c(Cl)c2)c(C)nn1C` [Table 2-16], the “Acaricidal rate (%)” value in assay [1] is 96%. Moreover, in assay [2], the “Ovicidal rate (%)” value was found to be 80%.
The matching figures for `COC=C(C(=O)OC)c1c(OCc2ccc(Cl)cc2Cl)c(C)nn1C` [Table 2-18]: 100% and 100%.
The matching figures for `CO/C=C(/C(=O)OC)c1c(OCc2cccc(Oc3ccc(Cl)c(Cl)c3)c2)c(C)nn1C` [Table 2-20]: 100% and 100%.
The matching figures for `CO/C=C(/C(=O)OC)c1c(OCc2cccc(Oc3ccc(F)cc3)c2)c(C)nn1C` [Table 2-21]: 100% and 100%.
In the case of `CO/C=C(/C(=O)OC)c1c(OCc2cc(Cl)ccc2Cl)c(C)nn1C` [Table 2-22], the “Acaricidal rate (%)” value in assay [1] is recorded as 100%. Moreover, the “Ovicidal rate (%)” value in assay [2] came to 100%.
For the compound `CO/C=C(/C(=O)OC)c1c(OCc2ccccc2C(F)(F)F)c(C)nn1C` [Table 2-23], in assay [1], the “Acaricidal rate (%)” value was 100%. Also, the “Ovicidal rate (%)” value in assay [2] is reported as 100%.
Take `CO/C=C(/C(=O)OC)c1c(OCc2ccc(F)cc2C(F)(F)F)c(C)nn1C` [Table 2-24]: the “Acaricidal rate (%)” value in assay [1] was found to be 100%. In addition, the “Ovicidal rate (%)” value in assay [2] stood at 100%.
Consider `CO/C=C(/C(=O)OC)c1c(OCc2cc(C(F)(F)F)ccc2C(F)(F)F)c(C)nn1C` [Table 2-25], for which, in assay [1], the “Acaricidal rate (%)” value came out at 100%. Besides, the “Ovicidal rate (%)” value in assay [2] came out at 100%.
`CO/C=C(/C(=O)OC)c1c(OCc2ccc(OC(F)(F)F)cc2)c(C(F)(F)F)nn1C` [Table 2-29]: the “Acaricidal rate (%)” value in assay [1] is on record as 100%. Also, the “Ovicidal rate (%)” value in assay [2] stood at 100%.
As for `CO/C=C(/C(=O)OC)c1c(OCc2ccc(OC(F)F)cc2)c(C(F)(F)F)nn1C` [Table 2-30], the “Acaricidal rate (%)” value in assay [1] is recorded as 100%. For the same compound, the “Ovicidal rate (%)” value in assay [2] stood at 100%.
Consider `CCc1nn(CC)c(/C(=C\OC)C(=O)OC)c1OCc1nc(OC(C)C)cc(C(F)(F)F)n1` [Table 2-32], for which, in assay [1], the “Acaricidal rate (%)” value was 100%. The “Ovicidal rate (%)” value in assay [2] came out at 100%.
As to `CCc1nn(CC)c(/C(=C\OC)C(=O)OC)c1OCc1nc(Cl)cc(C(F)(F)F)n1` [Table 2-33], the “Acaricidal rate (%)” value in assay [1] is reported as 100%. Moreover, the “Ovicidal rate (%)” value in assay [2] is recorded as 100%.
With `CO/C=C(/C(=O)OC)c1c(COc2ccc(C(F)(F)F)cc2)c(C)nn1C` [Table 3-61], the “Acaricidal rate (%)” value in assay [1] stood at 100%. For the same compound, in assay [2], the “Ovicidal rate (%)” value came to 100%.
Take `CO/C=C(/C(=O)OC)c1c(COc2ccc(OC(F)(F)F)cc2)c(C)nn1C` [Table 3-63]: in assay [1], the “Acaricidal rate (%)” value is reported as 100%. The “Ovicidal rate (%)” value in assay [2] was 100%.
For `CO/C=C(/C(=O)OC)c1c(CSc2ccc(C(F)(F)F)cc2)c(C)nn1C` [Table 3-66], in assay [1], the “Acaricidal rate (%)” value was 100%. For the same compound, in assay [2], the “Ovicidal rate (%)” value is on record as 100%.
As to `CCc1nn(C)c(/C(=N\OC)C(=O)NC)c1CON=C(C)c1ccc(OC(F)(F)F)cc1` [Table 3-75], the “Acaricidal rate (%)” value in assay [1] was 100%. The “Ovicidal rate (%)” value in assay [2] is listed as 100%.
Regarding `CO/N=C(/C(=O)OC)c1c(CON=C(C)c2ccc(C(F)(F)F)cc2)c(C)nn1C` [Table 3-90], the “Acaricidal rate (%)” value in assay [1] came out at 100%. Besides, the “Ovicidal rate (%)” value in assay [2] is 100%.
Turning to `CNC(=O)C(=NOC)c1c(CON=C(C)c2ccc(C(F)(F)F)cc2)c(C)nn1C` [Table 3-92], the “Acaricidal rate (%)” value in assay [1] is given as 100%. Also, in assay [2], the “Ovicidal rate (%)” value is listed as 100%.
For the compound `CO/C=C(/C(=O)OC)c1c(CON=C(C)c2cccc(OC(F)F)c2)c(C)nn1C` [Table 3-102], in assay [1], the “Acaricidal rate (%)” value was found to be 100%. Further, the “Ovicidal rate (%)” value in assay [2] is listed as 100%.
As for `C#CCN(C(=O)OC)c1c(OCc2ccccc2)c(C)nn1C` [Table 4-23], in assay [1], the “Acaricidal rate (%)” value is recorded as 100%. Moreover, the “Ovicidal rate (%)” value in assay [2] stood at 100%.
Consider `C#CCN(C(=O)OC)c1c(OCc2cc(Cl)ccc2Cl)c(C)nn1C` [Table 4-40], for which the “Acaricidal rate (%)” value in assay [1] is given as 100%. The “Ovicidal rate (%)” value in assay [2] came to 100%.
`C#CCN(C(=O)OC)c1c(OCc2cccc(OCc3ccccc3)c2)c(C)nn1C` [Table 4-85]: the “Acaricidal rate (%)” value in assay [1] was 100%. Moreover, in assay [2], the “Ovicidal rate (%)” value was determined as 100%.

The record behind these values is patent publication US20020156115A1, “Insecticidal and acaricidal composition, and methods of using the same” (AGRO-KANESHO CO., LTD., priority 1999, published 2002).
